{
  "source": "paper PMC7038240",
  "about": "(Antimicrobial Agents and Chemotherapy, 2020)",
  "type_in_all_cases": "cell-based",
  "key": {"P. aeruginosa": {"system": "P. aeruginosa", "test": "microbe, parasite or virus in culture", "conditions": "Pseudomonas aeruginosa, read-out: MIC"}, "S. marcescens": {"system": "S. marcescens", "test": "microbe, parasite or virus in culture", "conditions": "Serratia marcescens"}, "K. pneumoniae": {"system": "K. pneumoniae", "test": "microbe, parasite or virus in culture", "conditions": "Klebsiella pneumoniae, read-out: MIC"}, "M. morgannii": {"system": "M. morgannii", "test": "organism not typed", "conditions": "strain 769909; OXA-48", "source_text": "The antibacterial activity of cefepime-taniborbactam was compared to that of ceftazidime-avibactam, ceftolozane-tazobactam, and cefepime-tazobactam against a diverse panel of Enterobacterales and P. aeruginosa clinical isolates with defined β-lactamase subtypes (see Table S1 in the supplemental material). IMP-producing strains were excluded, as none of the BLI-protected cephalosporins inhibited IMP sufficiently to provide a clinically relevant rescue of the partner β-lactam, a characteristic also shared by approved BLI-protected carbapenems (meropenem-vaborbactam and imipenem-relebactam). […] The antibacterial activity of the cephalosporins alone was included to ascertain the level of potentiation by the partnered BLI. BLIs were tested at a fixed concentration of 4 μg/ml in all combinations except cefepime-tazobactam, where tazobactam was fixed at a concentration of 8 μg/ml ([38]). The collection comprised 143 clinical isolates collected from 2005 and 2018.\nThe in vitro antibacterial activity of the β-lactams alone or in combination with the BLIs was determined in cation-adjusted Mueller-Hinton broth (CAMHB) microdilution assays according to CLSI recommendations ([51]). […]. The inocula for the broth microdilution assays were prepared by the broth culture method ([51]). […]"}},
  "note": "Read-outs that look alike come from different tables or passages of the source.",
  "data": [
    {"smiles": "CO/N=C(\\C(=O)N[C@@H]1C(=O)N2C(C(=O)[O-])=C(C[N+]3(C)CCCC3)CS[C@H]12)c1csc(N)n1", "note": "[FEP]", "values": [
      {"measurement": "MIC", "setting": "P. aeruginosa; strain CDC-0090, KPC", "result": 128, "unit": "µg/mL"},
      {"measurement": "MIC", "setting": "P. aeruginosa; strain PA2, W.T.", "result": 8, "unit": "µg/mL"},
      {"measurement": "MIC", "setting": "P. aeruginosa; strain PAA1-9G1, GES-5", "result": "≥ 256", "unit": "µg/mL"},
      {"measurement": "MIC", "setting": "P. aeruginosa; strain PAA1-9G2, GES-5", "result": "≥ 256", "unit": "µg/mL"},
      {"measurement": "MIC", "setting": "P. aeruginosa; strain PS-12, VIM-2", "result": 32, "unit": "µg/mL"},
      {"measurement": "MIC", "setting": "P. aeruginosa; strain PS-32, VIM-2", "result": 8, "unit": "µg/mL"},
      {"measurement": "MIC", "setting": "P. aeruginosa; strain Paeβ-04, 100-fold ↑ PDC-2/30% OprD/5.6x ↑ABM", "result": 16, "unit": "µg/mL"},
      {"measurement": "MIC", "setting": "P. aeruginosa; strain Paeβ-10, 67-fold ↑ PDC-2/0.1% OprD/5.7x↑ABM", "result": 16, "unit": "µg/mL"},
      {"measurement": "MIC", "setting": "P. aeruginosa; strain Paeβ-15, 310-fold ↑ PDC-2/10% OprD/4.4x↑XYM", "result": 128, "unit": "µg/mL"},
      {"measurement": "MIC", "setting": "P. aeruginosa; strain Paeβ-18, 600-fold ↑ PDC-3/<0.01% OprD/3.9x and 5.6x ↑ABM and XYM", "result": 64, "unit": "µg/mL"},
      {"measurement": "MIC", "setting": "P. aeruginosa; strain Paeβ-21, 200-fold ↑ PDC-4/10% OprD/13.5x ↑XYM", "result": 16, "unit": "µg/mL"},
      {"measurement": "MIC", "setting": "P. aeruginosa; strain Ps296, VIM-2", "result": 4, "unit": "µg/mL"},
      {"measurement": "MIC", "setting": "S. marcescens; strain 134434, AmpC/SHV-12/TEM-1", "result": 4, "unit": "µg/mL"},
      {"measurement": "MIC", "setting": "S. marcescens; strain 192476, AmpC/TEM-1/SHV-5", "result": 4, "unit": "µg/mL"},
      {"measurement": "MIC", "setting": "S. marcescens; strain 192478, AmpC/SHV-12/TEM-1", "result": 4, "unit": "µg/mL"},
      {"measurement": "MIC", "setting": "S. marcescens; strain 218073, AmpC/SHV-7/TEM-1", "result": 2, "unit": "µg/mL"},
      {"measurement": "MIC", "setting": "K. pneumoniae; ATCC13883, K. pneumoniae ATCC 13883, enzyme content None", "result": 0.06, "unit": "µg/mL"},
      {"measurement": "MIC", "setting": "K. pneumoniae; BAA1705, K. pneumoniae BAA 1705, KPC-2", "result": 16, "unit": "µg/mL"},
      {"measurement": "MIC", "setting": "K. pneumoniae; K. pneumoniae CDC-0049 (NDM), BLI fixed at 4 μg/ml", "result": 256, "unit": "µg/mL"},
      {"measurement": "MIC", "setting": "K. pneumoniae; strain 6299, OXA-163", "result": 64, "unit": "µg/mL"},
      {"measurement": "MIC", "setting": "K. pneumoniae; strain 137052, SHV-11/KPC-3/TEM-1", "result": 16, "unit": "µg/mL"},
      {"measurement": "MIC", "setting": "K. pneumoniae; strain 178279, SHV-12/TEM-1/AmpC", "result": 8, "unit": "µg/mL"},
      {"measurement": "MIC", "setting": "K. pneumoniae; strain 196477, AmpC", "result": 16, "unit": "µg/mL"},
      {"measurement": "MIC", "setting": "K. pneumoniae; strain 212027, AmpC/FOX-5/TEM-1", "result": 2, "unit": "µg/mL"},
      {"measurement": "MIC", "setting": "K. pneumoniae; strain 515746, OXA-48", "result": 32, "unit": "µg/mL"},
      {"measurement": "MIC", "setting": "K. pneumoniae; strain 664438, OXA-48", "result": 32, "unit": "µg/mL"},
      {"measurement": "MIC", "setting": "K. pneumoniae; strain 664439, OXA-48", "result": 32, "unit": "µg/mL"},
      {"measurement": "MIC", "setting": "K. pneumoniae; strain 722870, OXA-48", "result": 8, "unit": "µg/mL"},
      {"measurement": "MIC", "setting": "K. pneumoniae; strain 752334, OXA-48", "result": 128, "unit": "µg/mL"},
      {"measurement": "MIC", "setting": "K. pneumoniae; strain 769972, OXA-48", "result": 16, "unit": "µg/mL"},
      {"measurement": "MIC", "setting": "K. pneumoniae; strain 787422, OXA-48", "result": 64, "unit": "µg/mL"},
      {"measurement": "MIC", "setting": "K. pneumoniae; strain 845661, KPC", "result": "≥ 256", "unit": "µg/mL"},
      {"measurement": "MIC", "setting": "K. pneumoniae; strain 847204, KPC", "result": 32, "unit": "µg/mL"},
      {"measurement": "MIC", "setting": "K. pneumoniae; strain 848562, KPC", "result": "≥ 256", "unit": "µg/mL"},
      {"measurement": "MIC", "setting": "K. pneumoniae; strain 848600, KPC", "result": "≥ 256", "unit": "µg/mL"},
      {"measurement": "MIC", "setting": "K. pneumoniae; strain 848828, KPC", "result": "≥ 256", "unit": "µg/mL"},
      {"measurement": "MIC", "setting": "K. pneumoniae; strain 849170, KPC", "result": "≥ 256", "unit": "µg/mL"},
      {"measurement": "MIC", "setting": "K. pneumoniae; strain 856819, SHV-11/VIM-1", "result": 32, "unit": "µg/mL"},
      {"measurement": "MIC", "setting": "K. pneumoniae; strain 864085, KPC", "result": 32, "unit": "µg/mL"},
      {"measurement": "MIC", "setting": "K. pneumoniae; strain 871489, KPC", "result": "≥ 256", "unit": "µg/mL"},
      {"measurement": "MIC", "setting": "K. pneumoniae; strain 873460, SHV-30/CTX-M-15", "result": 32, "unit": "µg/mL"},
      {"measurement": "MIC", "setting": "K. pneumoniae; strain 874328, SHV-11/CTX-M-15/NDM-1", "result": 128, "unit": "µg/mL"},
      {"measurement": "MIC", "setting": "K. pneumoniae; strain 882752, SHV-11/TEM-1/KPC-3", "result": 128, "unit": "µg/mL"},
      {"measurement": "MIC", "setting": "K. pneumoniae; strain 882956, SHV-31/DHA-1/VIM-1", "result": 16, "unit": "µg/mL"},
      {"measurement": "MIC", "setting": "K. pneumoniae; strain 884679, KPC", "result": 32, "unit": "µg/mL"},
      {"measurement": "MIC", "setting": "K. pneumoniae; strain 890066, SHV-33/TEM-33/CTX-M-15/IMP-1", "result": 64, "unit": "µg/mL"},
      {"measurement": "MIC", "setting": "K. pneumoniae; strain 892694, SHV-12/TEM-1/CTX-M-15/OXA-48/ACT", "result": 32, "unit": "µg/mL"},
      {"measurement": "MIC", "setting": "K. pneumoniae; strain 919877, SHV-OSBL/VIM-1", "result": 128, "unit": "µg/mL"},
      {"measurement": "MIC", "setting": "K. pneumoniae; strain 1104864, SHV-OSBL(b)/VIM-1", "result": "≥ 256", "unit": "µg/mL"},
      {"measurement": "MIC", "setting": "K. pneumoniae; strain 1104866, SHV-OSBL(b)/VIM-1", "result": "≥ 256", "unit": "µg/mL"},
      {"measurement": "MIC", "setting": "K. pneumoniae; strain 1280442, SHV-OSBL(b)/VIM-1", "result": 16, "unit": "µg/mL"},
      {"measurement": "MIC", "setting": "K. pneumoniae; strain CDC-0003, KPC", "result": 32, "unit": "µg/mL"},
      {"measurement": "MIC", "setting": "K. pneumoniae; strain CDC-0049, NDM", "result": "≥ 256", "unit": "µg/mL"},
      {"measurement": "MIC", "setting": "K. pneumoniae; strain CDC-0117, KPC-3", "result": 64, "unit": "µg/mL"},
      {"measurement": "MIC", "setting": "K. pneumoniae; strain CDC-0125, KPC-3", "result": 64, "unit": "µg/mL"},
      {"measurement": "MIC", "setting": "K. pneumoniae; strain CDC-0139, NDM-1", "result": "≥ 256", "unit": "µg/mL"},
      {"measurement": "MIC", "setting": "K. pneumoniae; strain CDC-0145, NDM", "result": "≥ 256", "unit": "µg/mL"},
      {"measurement": "MIC", "setting": "K. pneumoniae; strain CDC-0148, NDM", "result": 128, "unit": "µg/mL"},
      {"measurement": "MIC", "setting": "K. pneumoniae; strain CDC-0152, NDM", "result": "≥ 256", "unit": "µg/mL"},
      {"measurement": "MIC", "setting": "K. pneumoniae; strain DOV, OXA-48", "result": 32, "unit": "µg/mL"},
      {"measurement": "MIC", "setting": "K. pneumoniae; strain ESBL8 #1, TEM-1/SHV-12", "result": 4, "unit": "µg/mL"},
      {"measurement": "MIC", "setting": "K. pneumoniae; strain ESBL 10, SHV-12/TEM-1", "result": 8, "unit": "µg/mL"},
      {"measurement": "MIC", "setting": "K. pneumoniae; strain KIRK, OXA-162", "result": 16, "unit": "µg/mL"},
      {"measurement": "MIC", "setting": "K. pneumoniae; strain KP 3, SHV-1/TEM-1", "result": 16, "unit": "µg/mL"},
      {"measurement": "MIC", "setting": "K. pneumoniae; strain KPN 508, SHV-7/TEM-1", "result": 8, "unit": "µg/mL"},
      {"measurement": "MIC", "setting": "K. pneumoniae; strain SI-C05, OXA-48", "result": 16, "unit": "µg/mL"},
      {"measurement": "MIC", "setting": "K. pneumoniae; strain SI-F100, SHV-5/TEM-1/CMY-2", "result": 1, "unit": "µg/mL"},
      {"measurement": "MIC", "setting": "K. pneumoniae; strain SI-KP NO30, TEM-26b/SHV-60/SHV-26", "result": 16, "unit": "µg/mL"},
      {"measurement": "MIC", "setting": "M. morgannii", "result": 0.06, "unit": "µg/mL"}
    ]}
  ]
}
